Target: JAK1 (Homo sapiens (Human), UniProt P23458)
Experiment: Analysis of JAK1 activity inhibition ability (ADP-Glo Kinase Assay)
Format: biochemical
Conditions: JAK1 enzyme, ADP-Glo luminescence, ATP 250 uM, IRS-itide substrate, 30° C. 40 minutes; read-out: IC50
Method: Test Example 1: Analysis of JAK1 Activity Inhibition Ability of Compound of Formula 1 (ADP-Glo™ Kinase Assay)
A JAK inhibition ability of a compound according to the present invention was identified as follows.
A control material and a test material were prepared for each concentration, in such a way that they were diluted by means of DMSO. At the same time, ATP (250 uM) and JAK substrate (JAK1, IRS-itide 40 ng/mL) were prepared, in such a way that they were diluted by means of kinase buffer (40 mM Tris-HCl pH 7.5, 20 mM MgCl2, 0.5 mg/mL BSA, 50 uM DTT).
A test drug for each concentration, substrate, ATP and JAK enzyme were mixed in an eppendorf tube, and reacted in a 30° C. incubator for 40 minutes.
ADP-Glo™ reagent contained in ADP-Glo™ Kinase Enzyme System (Promega, USA, V9571) was added into each eppendorf tube, and reacted in a 30° C. incubator for 40 minutes. A kinase detection reagent contained in ADP-Go™ Kinase Enzyme System was inserted into the eppendorf tube, then an integration time was set to 1 second by using Wallac Victor 2™, then luminescence was measured, and then JAKs phosphorylation inhibition ability of the test material was analyzed. The concentration of the compound, which causes 50% of the JAK enzyme activity inhibition in comparison With the control group, was determined as IC50 (nM) of an inhibitor, wherein the results thereof are shown in a following table 1.

Sequence of JAK1 (P23458 whole entry): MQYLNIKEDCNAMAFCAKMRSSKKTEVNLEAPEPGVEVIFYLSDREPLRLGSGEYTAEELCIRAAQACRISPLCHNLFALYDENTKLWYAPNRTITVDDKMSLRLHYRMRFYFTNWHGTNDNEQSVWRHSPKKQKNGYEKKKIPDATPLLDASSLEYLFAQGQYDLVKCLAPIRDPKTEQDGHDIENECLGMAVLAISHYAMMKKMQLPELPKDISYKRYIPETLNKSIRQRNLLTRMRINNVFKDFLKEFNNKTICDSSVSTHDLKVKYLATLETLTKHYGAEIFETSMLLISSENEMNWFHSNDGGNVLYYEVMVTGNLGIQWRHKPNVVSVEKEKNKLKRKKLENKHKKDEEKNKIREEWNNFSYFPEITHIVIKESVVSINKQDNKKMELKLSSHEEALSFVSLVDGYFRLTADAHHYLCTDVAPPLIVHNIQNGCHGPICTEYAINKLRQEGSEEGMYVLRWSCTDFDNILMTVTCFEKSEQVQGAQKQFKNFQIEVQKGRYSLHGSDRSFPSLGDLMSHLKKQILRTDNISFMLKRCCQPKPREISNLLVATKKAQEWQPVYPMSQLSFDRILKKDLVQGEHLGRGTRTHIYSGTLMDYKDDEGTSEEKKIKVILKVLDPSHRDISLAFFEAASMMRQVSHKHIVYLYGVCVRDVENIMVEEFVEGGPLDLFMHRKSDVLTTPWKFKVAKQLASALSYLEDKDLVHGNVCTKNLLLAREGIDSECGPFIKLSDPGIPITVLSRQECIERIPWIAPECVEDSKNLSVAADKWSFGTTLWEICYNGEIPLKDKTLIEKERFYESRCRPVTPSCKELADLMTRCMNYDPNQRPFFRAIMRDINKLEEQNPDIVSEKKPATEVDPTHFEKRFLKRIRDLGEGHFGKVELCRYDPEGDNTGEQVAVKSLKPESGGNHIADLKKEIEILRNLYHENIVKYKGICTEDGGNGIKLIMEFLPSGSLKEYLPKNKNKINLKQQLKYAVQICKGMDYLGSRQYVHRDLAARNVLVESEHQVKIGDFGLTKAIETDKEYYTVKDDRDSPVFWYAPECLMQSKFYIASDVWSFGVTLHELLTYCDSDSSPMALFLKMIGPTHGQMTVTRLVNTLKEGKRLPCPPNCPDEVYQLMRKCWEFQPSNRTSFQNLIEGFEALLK

Row | SMILES | IC50
1 | CC1CN(C(=O)CC#N)CC=C1c1cc(NC(=O)C2CC2)nc2[nH]ccc12 (stereo in doubt) [Example 305, (R)—N-(4-(1-(2-cyanoacetyl)-3-methyl-1,2,3,6-tetrahydropyridin-4-yl)-1H-pyrrolo[2,3-b]pyridin-6-yl)cyclopropanecarboxamide] | 20 to 200 nM
2 | CCC1CC(c2cc(NC(=O)C3CC3)nc3[nH]ccc23)=CCN1C(=O)CC#N (stereo in doubt) [Example 417, (R)—N-(4-(1-(2-cyanoacetyl)-2-ethyl-1,2,3,6-tetrahydropyridin-4-yl)-1H-pyrrolo[2,3-b]pyridin-6-yl)cyclopropanecarboxamide] | < 20 nM
3 | CCCCS(=O)(=O)Nc1ccc(-c2cc(NC(=O)C3CC3)nc3[nH]ccc23)cc1 [Example 6, N-(4-(4-(butylsulfonamido)phenyl)-1H-pyrrolo[2,3-b]pyridin-6-yl)cyclopropanecarboxamide] | < 20 nM
4 | O=C(Nc1cc(-c2ccc(NS(=O)(=O)CCF)cc2)c2cc[nH]c2n1)C1CC1 [Example 8, N-(4-(4-((2-fluoroethyl)sulfonamido)phenyl)-1H-pyrrolo[2,3-b]pyridin-6-yl)cyclopropanecarboxamide] | 20 to 200 nM
5 | O=C(Nc1cc(-c2ccc(NS(=O)(=O)c3ccc(Cl)nc3)cc2)c2cc[nH]c2n1)C1CC1 [Example 12, N-(4-(4-((6-chloropyridine)-3-sulfonamido)phenyl)-1H-pyrrolo[2,3-b]pyridin-6-yl)cyclopropanecarboxamide] | < 20 nM
6 | O=C(Nc1cc(-c2ccc(NS(=O)(=O)c3ccc(F)cc3)cc2)c2cc[nH]c2n1)C1CC1 [Example 13, N-(4-(4-((4-fluorophenyl)sulfonamido)phenyl)-1H-pyrrolo[2,3-b]pyridin-6-yl)cyclopropanecarboxamide] | < 20 nM
7 | CC(=O)N1CCC(S(=O)(=O)Nc2ccc(-c3cc(NC(=O)C4CC4)nc4[nH]ccc34)cc2)CC1 [Example 18, N-(4-(4-((1-acetylpiperidine)-4-sulfonamido)phenyl)-1H-pyrrolo[2,3-b]pyridin-6-yl)cyclopropanecarboxamide] | 20 to 200 nM
8 | CC(C)Oc1ccc(S(=O)(=O)Nc2ccc(-c3cc(NC(=O)C4CC4)nc4[nH]ccc34)cc2)cc1 [Example 19, N-(4-(4-((4-isopropoxyphenyl)sulfonamido)phenyl)-1H-pyrrolo[2,3-b]pyridin-6-yl)cyclopropanecarboxamide] | < 20 nM
9 | O=C(Nc1cc(-c2ccc(NS(=O)(=O)c3ccc(Br)cc3)cc2)c2cc[nH]c2n1)C1CC1 [Example 20, N-(4-(4-((4-bromophenyl)sulfonamido)phenyl)-1H-pyrrolo[2,3-b]pyridin-6-yl)cyclopropanecarboxamide] | 20 to 200 nM
10 | O=C(Nc1cc(-c2ccc(NS(=O)(=O)c3ccc4c(c3)CCO4)cc2)c2cc[nH]c2n1)C1CC1 [Example 22, N-(4-(4-((2,3-dihydrobenzofuran)-5-sulfonamido)phenyl)-1H-pyrrolo[2,3-b]pyridin-6-yl)cyclopropanecarboxamide] | 20 to 200 nM
11 | COc1ccc(S(=O)(=O)Nc2ccc(-c3cc(NC(=O)C4CC4)nc4[nH]ccc34)cc2)cn1 [Example 23, N-(4-(4-((6-methoxypyridine)-3-sulfonamido)phenyl)-1H-pyrrolo[2,3-b]pyridin-6-yl)cyclopropanecarboxamide] | < 20 nM
12 | O=C(Nc1cc(-c2ccc(NS(=O)(=O)c3ccccc3)cc2)c2cc[nH]c2n1)C1CC1 [Example 24, N-(4-(4-(phenylsulfonamido)phenyl)-1H-pyrrolo[2,3-b]pyridin-6-yl)cyclopropanecarboxamide] | < 20 nM
13 | O=C(Nc1cc(-c2ccc(NS(=O)(=O)c3cccc(F)c3)cc2)c2cc[nH]c2n1)C1CC1 [Example 25, N-(4-(4-((3-fluorophenyl)sulfonamido)phenyl)-1H-pyrrolo[2,3-b]pyridin-6-yl)cyclopropanecarboxamide] | < 20 nM
14 | Cc1ccc(S(=O)(=O)Nc2ccc(-c3cc(NC(=O)C4CC4)nc4[nH]ccc34)cc2)cc1 [Example 27, N-(4-(4-((4-methylphenyl)sulfonamido)phenyl)-1H-pyrrolo[2,3-b]pyridin-6-yl)cyclopropanecarboxamide] | 20 to 200 nM
15 | CSc1ccc(S(=O)(=O)Nc2ccc(-c3cc(NC(=O)C4CC4)nc4[nH]ccc34)cc2)cc1 [Example 28, N-(4-(4-((4-(methylthio)phenyl)sulfonamido)phenyl)-1H-pyrrolo[2,3-b]pyridin-6-yl)cyclopropanecarboxamide] | 20 to 200 nM

Further lines, results first:

Row | IC50 | SMILES
16 | < 20 nM | N#C[C@H]1CC1C(=O)N1CC=C(c2cc(NC(=O)C3CC3)nc3[nH]ccc23)CC1 (stereo in doubt) [Example 267, N-(4-(1-((1S,2S)-2-cyanocyclopropane-1-carbonyl)-1,2,3,6-tetrahydropyridin-4-yl)-1H-pyrrolo[2,3-b]pyridin-6-yl)cyclopropanecarboxamide]
17 | < 20 nM | CCS(=O)(=O)Nc1ccc(-c2cc(NC(=O)C3CC3)nc3[nH]ccc23)cc1F [Example 1, N-(4-(4-(ethylsulfonamido)-3-fluorophenyl)-1H-pyrrolo[2,3-b]pyridin-6-yl)cyclopropanecarboxamide]
18 | < 20 nM | O=C(Nc1cc(-c2ccc(NS(=O)(=O)c3ccc(F)c(F)c3)cc2)c2cc[nH]c2n1)C1CC1 [Example 2, N-(4-(4-((3,4-difluorophenyl)sulfonamido)phenyl)-1H-pyrrolo[2,3-b]pyridin-6-yl)cyclopropanecarboxamide]
19 | < 20 nM | O=C(Nc1cc(-c2ccc(NS(=O)(=O)CCCF)cc2)c2cc[nH]c2n1)C1CC1 [Example 3, N-(4-(4-((3-fluoropropyl)sulfonamido)phenyl)-1H-pyrrolo[2,3-b]pyridin-6-yl)cyclopropanecarboxamide]
20 | < 20 nM | CCS(=O)(=O)Nc1ccc(-c2cc(NC(=O)C3CC3)nc3[nH]ccc23)cc1 [Example 4, N-(4-(4-(ethylsulfonamido)phenyl)-1H-pyrrolo[2,3-b]pyridin-6-yl)cyclopropanecarboxamide]
21 | < 20 nM | CCCS(=O)(=O)Nc1ccc(-c2cc(NC(=O)C3CC3)nc3[nH]ccc23)cc1 [Example 5, N-(4-(4-(propylsulfonamido)phenyl)-1H-pyrrolo[2,3-b]pyridin-6-yl)cyclopropanecarboxamide]
22 | < 20 nM | O=C(Nc1cc(-c2ccc(NS(=O)(=O)C3CCCCC3)cc2)c2cc[nH]c2n1)C1CC1 [Example 7, N-(4-(4-(cyclohexanesulfonamido)phenyl)-1H-pyrrolo[2,3-b]pyridin-6-yl)cyclopropanecarboxamide]
23 | < 20 nM | O=C(Nc1cc(-c2ccc(NS(=O)(=O)C3CCS(=O)(=O)CC3)cc2)c2cc[nH]c2n1)C1CC1 [Example 9, N-(4-(4-((1,1-dioxidotetrahydro-2H-thiopyran)-4-sulfonamido)phenyl)-1H-pyrrolo[2,3-b]pyridin-6-yl)cyclopropanecarboxamide]
24 | < 20 nM | O=C(Nc1cc(-c2ccc(NS(=O)(=O)C3CCS(=O)(=O)C3)cc2)c2cc[nH]c2n1)C1CC1 (stereo not shown) [Example 10, N-(4-(4-((1,1-dioxidotetrahydrothiophene)-3-sulfonamido)phenyl)-1H-pyrrolo[2,3-b]pyridin-6-yl)cyclopropanecarboxamide]
25 | < 20 nM | O=C(Nc1cc(-c2ccc(NS(=O)(=O)C3CS(=O)(=O)C3)cc2)c2cc[nH]c2n1)C1CC1 [Example 11, N-(4-(4-((1,1-dioxidothietane)-3-sulfonamido)phenyl)-1H-pyrrolo[2,3-b]pyridin-6-yl)cyclopropanecarboxamide]
26 | < 20 nM | O=C(Nc1cc(-c2ccc(NS(=O)(=O)c3ccc(Cl)cc3)cc2)c2cc[nH]c2n1)C1CC1 [Example 14, N-(4-(4-((4-chlorophenyl)sulfonamido)phenyl)-1H-pyrrolo[2,3-b]pyridin-6-yl)cyclopropanecarboxamide]
27 | 20 to 200 nM | Cn1cncc1S(=O)(=O)Nc1ccc(-c2cc(NC(=O)C3CC3)nc3[nH]ccc23)cc1 [Example 15, N-(4-(4-((1-methyl-1H-imidazole)-5-sulfonamido)phenyl)-1H-pyrrolo[2,3-b]pyridin-6-yl)cyclopropanecarboxamide]
28 | 20 to 200 nM | Cn1cc(S(=O)(=O)Nc2ccc(-c3cc(NC(=O)C4CC4)nc4[nH]ccc34)cc2)cn1 [Example 16, N-(4-(4-((1-methyl-1H-pyrazole)-4-sulfonamido)phenyl)-1H-pyrrolo[2,3-b]pyridin-6-yl)cyclopropanecarboxamide]
29 | 20 to 200 nM | NC(=O)c1ccc(S(=O)(=O)Nc2ccc(-c3cc(NC(=O)C4CC4)nc4[nH]ccc34)cc2)cc1 [Example 17, 4-(N-(4-(6-(cyclopropanecarboxamido)-1H-pyrrolo[2,3-b]pyridin-4-yl)phenyl)sulfamoyl)benzamide]
30 | 20 to 200 nM | N#Cc1ccc(S(=O)(=O)Nc2ccc(-c3cc(NC(=O)C4CC4)nc4[nH]ccc34)cc2)cc1 [Example 21, N-(4-(4-((4-cyanophenyl)sulfonamido)phenyl)-1H-pyrrolo[2,3-b]pyridin-6-yl)cyclopropanecarboxamide]
31 | 20 to 200 nM | O=C(Nc1cc(-c2ccc(NS(=O)(=O)c3cccc(Cl)c3)cc2)c2cc[nH]c2n1)C1CC1 [Example 26, N-(4-(4-((3-chlorophenyl)sulfonamido)phenyl)-1H-pyrrolo[2,3-b]pyridin-6-yl)cyclopropanecarboxamide]
